# Test results as given in US20260070929A1, “METHODS AND COMPOSITIONS FOR MODULATING KRAS(G12D)” (Ranok Therapeutics (Hangzhou) Co. LTD., priority 2022, published 2026).
# Legend:
# [1] = system: AGS gastric carcinoma cells [heterozygous G12D]; assay: Cancer cell line proliferation (CellTiter-Glo), AGS; format: cell-based; conditions: Homo sapiens, 72 hr treatment, read-out: AGS CTG (EC50)
# Method: (§1) The following cancer cell lines were employed: AGS gastric carcinoma [heterozygous G12D](ATCC, CRL-1739); A-427 lung carcinoma [heterozygous G12D](ATCC, HTB-53); ASPC1 pancreatic adenocarcinoma [homozygous G12D](ATCC, CRL-1682) and SW1990 pancreatic adenocarcinoma [homozygous G12D](ATCC CRL-2172). Cell lines were cultured essentially according to ATCC recommendations.
# (§2) AGS, A-427, ASPC1, SW1990, and GP2D cells were plated in 96-well tissue culture plates at 4,000 cells/well and incubated at 37° C./5% CO2 for 72 hr in 100 μl of media. 3-fold serial dilutions of each test compound were prepared ranging from 20 μM to 1.02 nM. Each cell line was then treated with test compounds at various concentrations with a final concentration of 0.5% DMSO/well, and then incubated at 37° C./5% CO2 for 72 hr. 100 µl of CellTiter-Glo® Reagent (Promega Corporation, Madison, WI) was added to each well and processed according manufacturer's protocol. Results were analyzed and EC50 values were calculated in GraphPad 7 software.
# [2] = molecular target: T1, KRAS(G12D)/SOS1 (Homo sapiens, UniProt P01116, G12D); assay: KRAS(G12D)/SOS1 homogeneous time-resolved fluorescence (HTRF) assay; format: binding; conditions: absence of GTP; 4° C., 3 hr
# T1 construct: purchased Cisbio 63ADK000CB17PEH
# T1 sequence (P01116 1-188 isoform P01116-2 G12D): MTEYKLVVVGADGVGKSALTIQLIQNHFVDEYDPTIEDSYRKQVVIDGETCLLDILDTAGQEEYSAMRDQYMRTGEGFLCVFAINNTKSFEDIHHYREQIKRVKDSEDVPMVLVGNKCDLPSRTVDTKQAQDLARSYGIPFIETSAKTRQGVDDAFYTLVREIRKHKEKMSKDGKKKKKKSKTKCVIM
# Method: Binding of test compounds to KRAS(G12D) target protein, which in turn blocks KRAS(G12D) interaction with the SOS1 protein, was measured in the absences of GTP by homogeneous time-resolved fluorescence using the KRAS-G12D/SOS1 Binding Assay Kit (Cisbio, 63ADK000CB17PEH), following the manufacturer's instructions, except as noted. 3-fold serial dilutions of each test compound were prepared ranging from 20 µM to 1.02 nM. The test compound was mixed and incubated with reaction components, incubated in a sealed plate at 4° C. for 3 hr and fluorescence was measured using a PerkinElmer Envision plate reader. The KRAS(G12D)-SOS1 IC50 values (the concentration of 50% of the maximal inhibition) were calculated using GraphPad Prism 7 software.
# [3] = system: A-427 lung carcinoma cells [heterozygous G12D]; assay: Cancer cell line proliferation (CellTiter-Glo), A-427; format: cell-based; conditions: Homo sapiens, A-427 cells, 72 hr treatment, read-out: A427 CTG (EC50)
# Method: as §1, §2
Structure (SMILES),EC50 [1],IC50 [2],EC50 [3]
CCc1cc(-c2nnc(C(=O)NCC(F)(F)F)n2-c2ccc(CN3CCN([C@H]4C[C@@H](COc5nc(N6CC7CCC(C6)N7)c6cnc(-c7cccc(F)c7C)c(F)c6n5)N(C)C4)CC3)cc2)c(O)cc1O [Compound 79],100 to 1000 nM,> 1000 nM,100 to 1000 nM
C#Cc1cccc2cccc(-c3ncc4c(N5CC6CCC(C5)N6)nc(OC[C@@H]5C[C@H](N6CCN(CCN(CC)C(=O)c7cc(C(C)C)c(O)cc7O)CC6)CN5C)nc4c3F)c12 [Compound 80],> 1000 nM,< 100 nM,> 1000 nM
CCc1cc(-c2nnc(C(=O)NCC(F)(F)F)n2-c2ccc(CN3CCN([C@H]4C[C@@H](COc5nc(N6CC7CCC(C6)N7)c6cnc(-c7cccc(C)c7C)c(F)c6n5)N(C)C4)CC3)cc2)c(O)cc1O [Compound 81],100 to 1000 nM,> 1000 nM,100 to 1000 nM
Cc1cccc(-c2ncc3c(N4CC5CCC(C4)N5)nc(OC[C@@H]4C[C@H](N5CCN(Cc6ccc(-n7c(C(=O)NC(C)C(F)(F)F)nnc7-c7cc(C(C)C)c(O)cc7O)cc6)CC5)CN4C)nc3c2F)c1C (stereo partly drawn) [Compound 82],100 to 1000 nM,> 1000 nM,100 to 1000 nM
CCNC(=O)c1nnc(-c2cc(C(C)C)c(O)cc2O)n1-c1ccc(CN2CCN([C@H]3C[C@@H](COc4nc(N5CC6CNC(C6)C5)c5cnc(-c6cc(O)cc7ccccc67)c(F)c5n4)N(C)C3)CC2)cc1 (stereo partly drawn) [Compound 85],100 to 1000 nM,> 1000 nM,100 to 1000 nM
C#Cc1cccc2cc(O)cc(-c3ncc4c(N5CC6CCC(C5)N6)nc(OC[C@@H]5C[C@H](N6CCN(Cc7ccc8c(c7)CN(C(=O)c7cc(C(C)C)c(O)cc7O)C8)CC6)CN5C)nc4c3F)c12 [Compound 86],100 to 1000 nM,< 100 nM,100 to 1000 nM
C#Cc1cccc2cc(O)cc(-c3ncc4c(N5CC6CCC(C5)N6)nc(OC[C@@H]5C[C@H](N6CCN(Cc7ccc(-n8c(C(=O)NC(C)C)nnc8-c8cc(C(C)C)c(O)cc8O)cc7)CC6)CN5C)nc4c3F)c12 [Compound 87],100 to 1000 nM,< 100 nM,100 to 1000 nM
CC(C)NC(=O)c1nnc(-c2cc(C(C)C)c(O)cc2O)n1-c1ccc(CN2CCN([C@H]3C[C@@H](COc4nc(N5CC6CCC(C5)N6)c5cnc(-c6ccccc6C(F)(F)F)c(F)c5n4)N(C)C3)CC2)cc1 [Compound 88],< 100 nM,> 1000 nM,100 to 1000 nM
CCNC(=O)c1nnc(-c2cc(C(C)C)c(O)cc2O)n1-c1ccc(CN2CCC(C(=O)N3CCN([C@H]4C[C@@H](COc5nc(N6CC7CCC(C6)N7)c6cnc(-c7ccccc7C(F)(F)F)c(F)c6n5)N(C)C4)CC3)CC2)cc1 [Compound 89],< 100 nM,> 1000 nM,< 100 nM
CC(C)c1cc(C(=O)N2Cc3ccc(CN4CCC(C(=O)N5CCN([C@H]6C[C@@H](COc7nc(N8CC9CCC(C8)N9)c8cnc(-c9ccccc9C(F)(F)F)c(F)c8n7)N(C)C6)CC5)CC4)cc3C2)c(O)cc1O [Compound 91],100 to 1000 nM,> 1000 nM,100 to 1000 nM
CC(C)c1cc(C(=O)N2Cc3ccc(CN4CCC(C(=O)N5CCN([C@H]6C[C@@H](COc7nc(N8CC9CCC(C8)N9)c8cnc(-c9cccc%10cccc(F)c9%10)c(F)c8n7)N(C)C6)CC5)CC4)cc3C2)c(O)cc1O [Compound 92],100 to 1000 nM,100 to 1000 nM,100 to 1000 nM
CC(C)c1cc(-c2nnc(C(=O)NC(C)C(F)(F)F)n2-c2ccc(CN3CCN([C@H]4C[C@@H](COc5nc(N6CC7CCC(C6)N7)c6cnc(-c7cccc8cccc(F)c78)c(F)c6n5)N(C)C4)CC3)cc2)c(O)cc1O (stereo partly drawn) [Compound 93],< 100 nM,100 to 1000 nM,100 to 1000 nM
Cc1cccc2cccc(-c3ncc4c(N5CC6CCC(C5)N6)nc(OC[C@@H]5CC[C@H](CN6CCN(C(=O)C7CCN(Cc8ccc9c(c8)CN(C(=O)c8cc(C(C)C)c(O)cc8O)C9)CC7)CC6)N5C)nc4c3F)c12 [Compound 94],100 to 1000 nM,100 to 1000 nM,100 to 1000 nM
CCNC(=O)c1nnc(-c2cc(C(C)C)c(O)cc2O)n1-c1ccc(CN2CCN(C[C@H]3C[C@@H](COc4nc(N5CC6CCC(C5)N6)c5cnc(-c6cc(O)cc7ccccc67)c(F)c5n4)N(C)C3)CC2)cc1 [Compound 95],< 100 nM,< 100 nM,100 to 1000 nM
C#Cc1cccc2cc(O)cc(-c3ncc4c(N5CC6CCC(C5)N6)nc(OC[C@@H]5C[C@H](N6CCN(Cc7ccc(-n8c(C(=O)NCC)nnc8-c8cc(C(C)C)c(O)cc8O)cc7)CC6)CN5C)nc4c3F)c12 [Compound 96],100 to 1000 nM,< 100 nM,100 to 1000 nM
C#Cc1cccc2cc(O)cc(-c3ncc4c(N5CC6CCC(C5)N6)nc(OC[C@@H]5C[C@H](N6CCN(C(=O)C7CCN(Cc8ccc9c(c8)CN(C(=O)c8cc(C(C)C)c(O)cc8O)C9)CC7)CC6)CN5C)nc4c3F)c12 [Compound 97],100 to 1000 nM,< 100 nM,100 to 1000 nM
C#Cc1cccc2cc(O)cc(-c3ncc4c(N5CC6CCC(C5)N6)nc(OC[C@@H]5C[C@H](N6CCN(Cc7ccc(-n8c(C(=O)NC(C)C(F)(F)F)nnc8-c8cc(C(C)C)c(O)cc8O)cc7)CC6)CN5C)nc4c3F)c12 (stereo partly drawn) [Compound 98],100 to 1000 nM,< 100 nM,100 to 1000 nM
C#Cc1cccc2cc(O)cc(-c3ncc4c(N5CC6CCC(C5)N6)nc(OC[C@@H]5C[C@H](N6CCN(Cc7ccc(-n8c(C(=O)NCC(F)(F)F)nnc8-c8cc(CC)c(O)cc8O)cc7)CC6)CN5C)nc4c3F)c12 [Compound 99],100 to 1000 nM,< 100 nM,100 to 1000 nM
CC(C)c1cc(-c2nnc(C(=O)NC(C)C(F)(F)F)n2-c2ccc(CN3CCN([C@H]4C[C@@H](COc5nc(N6CC7CCC(C6)N7)c6cnc(-c7cc(O)cc8ccccc78)c(F)c6n5)N(C)C4)CC3)cc2)c(O)cc1O (stereo partly drawn) [Compound 100],< 100 nM,< 100 nM,100 to 1000 nM
CC(C)c1cc(-c2nnc(C(=O)NCC(F)(F)F)n2-c2ccc(CN3CCN([C@H]4C[C@@H](COc5nc(N6CC7CCC(C6)N7)c6cnc(-c7cc(O)cc8ccccc78)c(F)c6n5)N(C)C4)CC3)cc2)c(O)cc1O [Compound 101],< 100 nM,< 100 nM,100 to 1000 nM
COc1cccc2cccc(-c3ncc4c(N5CC6CCC(C5)N6)nc(OC[C@@H]5C[C@H](N6CCN(C(=O)C7CCN(Cc8ccc9c(c8)CN(C(=O)c8cc(C(C)C)c(O)cc8O)C9)CC7)CC6)CN5C)nc4c3F)c12 [Compound 104],100 to 1000 nM,> 1000 nM,100 to 1000 nM
CCc1cc(-c2nnc(C(=O)NCC(F)(F)F)n2-c2ccc(CN3CCN([C@H]4C[C@@H](COc5nc(N6CC7CCC(C6)N7)c6cnc(-c7cccc8cccc(OC)c78)c(F)c6n5)N(C)C4)CC3)cc2)c(O)cc1O [Compound 105],100 to 1000 nM,> 1000 nM,100 to 1000 nM
COc1cccc2cccc(-c3ncc4c(N5CC6CCC(C5)N6)nc(OC[C@@H]5C[C@H](N6CCN(Cc7ccc(-n8c(C(=O)NC(C)C(F)(F)F)nnc8-c8cc(C(C)C)c(O)cc8O)cc7)CC6)CN5C)nc4c3F)c12 (stereo partly drawn) [Compound 106],< 100 nM,> 1000 nM,100 to 1000 nM
CCc1cc(-c2nnc(C(=O)NCC(F)(F)F)n2-c2ccc(CN3CCN(C[C@H]4CC[C@@H](COc5nc(N6CC7CCC(C6)N7)c6cnc(-c7cccc8cccc(C)c78)c(F)c6n5)N4C)CC3)cc2)c(O)cc1O [Compound 108],100 to 1000 nM,100 to 1000 nM,100 to 1000 nM
